Reference: patent US20210254056A1, “IDENTIFICATION AND TARGETED MODULATION OF GENE SIGNALING NETWORKS” (CAMP4 THERAPEUTICS CORPORATION, priority 2017, published 2021)
Counter-ions that a name gives are not always drawn.

Tested on: hepatocytes
Assay: RNA-seq of hepatocytes treated with Phase III failure compounds
Conditions: for significant modulation of expression of disease genes: q≤0.05, genes in the value or listed in the block; for significant changes in gene expression: RNA-seq of Table 36, FPKM≥0.5, log 2(fold-change)≥1, q-value≤0.05; for significant modulation of expression of any of the genes analyzed: p≤0.05
Experimental: RNA-seq was performed to determine the effects of the compounds on hepatocytes.
Significance was determined by the criteria of FPKM≥0.5, a log 2(fold-change)≥1, and a […].

COc1cc2c(Oc3ccc4[nH]c(C)cc4c3F)ncnc2cc1OCCCN1CCCC1 [Cediranib]
RNA-seq results, CYP2B6 expression: −0.46
RNA-seq results, CYP2C19 expression: −0.80
RNA-seq results, CYP2D6 expression: −0.12
RNA-seq results, CYP3A4 expression: −0.75
RNA-seq results, CYP7B1 expression: −0.93
RNA-seq results, CYP39A1 expression: −0.61
RNA-seq results: CYP2B6 expression: 0.41
RNA-seq results: CYP2C19 expression: −1
RNA-seq results: CYP2D6 expression: 0.79
RNA-seq results: CYP3A4 expression: 1.58
RNA-seq results: CYP7B1 expression: −0.02
RNA-seq results: CYP39A1 expression: −0.24
significant modulation of expression of disease genes (RNA-seq, hepatocytes): significantly (q≤0.05) modulate expression
effect on disease gene expression (RNA-seq, hepatocytes): effect on expression of too many disease genes
genes down-regulated by the compound (RNA-seq, hepatocytes, gene named in the value): down-regulate Factor V levels
RNA-seq results: A1BG expression (gene A1BG, hepatocytes): 0.15
RNA-seq results: AGTR1 expression (gene AGTR1, hepatocytes): −0.32
RNA-seq results: AGXT expression (gene AGXT, hepatocytes): −0.23
RNA-seq results: AHI1 expression (gene AHI1, hepatocytes): −0.17
RNA-seq results: AMPD3 expression (gene AMPD3, hepatocytes): −0.52
RNA-seq results: AMT expression (gene AMT, hepatocytes): −0.23
RNA-seq results: ANGPTL3 expression (gene ANGPTL3, hepatocytes): −1.40
RNA-seq results: ANKS4B expression (gene ANKS4B, hepatocytes): −0.31
RNA-seq results: ANKS6 expression (gene ANKS6, hepatocytes): 0.09
RNA-seq results: ANPEP expression (gene ANPEP, hepatocytes): −0.85
RNA-seq results: AOC2 expression (gene AOC2, hepatocytes): −0.47
RNA-seq results: APOA2 expression (gene APOA2, hepatocytes): 0.16
RNA-seq results: APOA5 expression (gene APOA5, hepatocytes): −0.08
RNA-seq results: APOB expression (gene APOB, hepatocytes): −0.99
RNA-seq results: COG5 expression (gene COG5, hepatocytes): −0.45
RNA-seq results: COG6 expression (gene COG6, hepatocytes): −0.46
RNA-seq results: COL1A1 expression (gene COL1A1, hepatocytes): −0.72
RNA-seq results: COX6A1 expression (gene COX6A1, hepatocytes): 0.16
RNA-seq results: CP expression (gene CP, hepatocytes): 0.53
RNA-seq results: CPS1 expression (gene CPS1, hepatocytes): −0.28
RNA-seq results: CPT1A expression (gene CPT1A, hepatocytes): 0.16
RNA-seq results: CPT2 expression (gene CPT2, hepatocytes): 1.26
RNA-seq results: CROT expression (gene CROT, hepatocytes): 0.55
RNA-seq results: CSPP1 expression (gene CSPP1, hepatocytes): −0.7
RNA-seq results: CTC1 expression (gene CTC1, hepatocytes): −0.9
RNA-seq results: CTDSP2 expression (gene CTDSP2, hepatocytes): −0.18
RNA-seq results: CTH expression (gene CTH, hepatocytes): 0.66
RNA-seq results: CTNS expression (gene CTNS, hepatocytes): −1.18
RNA-seq results: CTSF expression (gene CTSF, hepatocytes): 0.6
RNA-seq results: CTSK expression (gene CTSK, hepatocytes): 0.02
RNA-seq results: CYB5A expression (gene CYB5A, hepatocytes): −0.16
RNA-seq results: CYB5R3 expression (gene CYB5R3, hepatocytes): 0.14
RNA-seq results: CYP27A1 expression (gene CYP27A1, hepatocytes): 0.51
RNA-seq results: DAO expression (gene DAO, hepatocytes): 0.23
RNA-seq results: DBT expression (gene DBT, hepatocytes): −0.33
RNA-seq results: DCDC2 expression (gene DCDC2, hepatocytes): −1.25
RNA-seq results: DCXR expression (gene DCXR, hepatocytes): 0.96
RNA-seq results: FABP1 expression (gene FABP1, hepatocytes): 0.4
RNA-seq results: FADD expression (gene FADD, hepatocytes): −0.23
RNA-seq results: FAM111A expression (gene FAM111A, hepatocytes): −0.68
RNA-seq results: FAM111B expression (gene FAM111B, hepatocytes): −0.13
RNA-seq results: FAN1 expression (gene FAN1, hepatocytes): −1.14
RNA-seq results: FARS2 expression (gene FARS2, hepatocytes): −0.84
RNA-seq results: FASLG expression (gene FASLG, hepatocytes): −1.48
RNA-seq results: FGA expression (gene FGA, hepatocytes): 0.87
RNA-seq results: FGD1 expression (gene FGD1, hepatocytes): −0.22
RNA-seq results: FGFR2 expression (gene FGFR2, hepatocytes): −0.16
RNA-seq results: FIG4 expression (gene FIG4, hepatocytes): −0.45
RNA-seq results: FIS1 expression (gene FIS1, hepatocytes): −0.27
RNA-seq results: FTCD expression (gene FTCD, hepatocytes): −0.68
RNA-seq results: FTH1 expression (gene FTH1, hepatocytes): −0.17
RNA-seq results: FUCA1 expression (gene FUCA1, hepatocytes): 1.44
RNA-seq results: FXN expression (gene FXN, hepatocytes): −1.56
RNA-seq results: G6PC3 expression (gene G6PC3, hepatocytes): −0.89
RNA-seq results: G6PC expression (gene G6PC, hepatocytes): 0.32
RNA-seq results: G6PD expression (gene G6PD, hepatocytes): 1.51
RNA-seq results: GALK1 expression (gene GALK1, hepatocytes): −0.27
RNA-seq results: GALK2 expression (gene GALK2, hepatocytes): 0.04
RNA-seq results: GALT expression (gene GALT, hepatocytes): −0.02
RNA-seq results: GATA6 expression (gene GATA6, hepatocytes): −0.1
RNA-seq results: GATM expression (gene GATM, hepatocytes): −0.66
RNA-seq results: GBA expression (gene GBA, hepatocytes): −0.06
RNA-seq results: GBE1 expression (gene GBE1, hepatocytes): −0.62
RNA-seq results: GCH1 expression (gene GCH1, hepatocytes): 1.49
RNA-seq results: GCKR expression (gene GCKR, hepatocytes): −1.15
RNA-seq results: GCLC expression (gene GCLC, hepatocytes): 0.3
RNA-seq results: GOSH expression (gene GOSH, hepatocytes): −0.39
RNA-seq results: RRM2B (gene RRM2B, hepatocytes): −0.75
RNA-seq results: RSAD1 (gene RSAD1, hepatocytes): 0.13
RNA-seq results: SAMHD1 (gene SAMHD1, hepatocytes): −1.05
RNA-seq results: SC5D (gene SC5D, hepatocytes): 0.51
RNA-seq results: SCARB1 (gene SCARB1, hepatocytes): −0.30
RNA-seq results: SCN9A (gene SCN9A, hepatocytes): −0.39
RNA-seq results: SDCCAG8 (gene SDCCAG8, hepatocytes): −0.30
RNA-seq results: SEPN1 (gene SEPN1, hepatocytes): −0.85
RNA-seq results: SERAC1 (gene SERAC1, hepatocytes): −0.14
RNA-seq results: SERPINA1 (gene SERPINA1, hepatocytes): −0.19
RNA-seq results: SERPING1 (gene SERPING1, hepatocytes): −0.29
RNA-seq results: SERPINI1 (gene SERPINI1, hepatocytes): −0.73
RNA-seq results: SETBP1 (gene SETBP1, hepatocytes): −0.30
RNA-seq results: SFXN4 (gene SFXN4, hepatocytes): −0.01
RNA-seq results: SLC10A1 (gene SLC10A1, hepatocytes): −0.88
RNA-seq results: SLC10A3 (gene SLC10A3, hepatocytes): −0.50
RNA-seq results: SLC10A5 (gene SLC10A5, hepatocytes): −0.90
RNA-seq results: SLC10A7 (gene SLC10A7, hepatocytes): −0.52
RNA-seq results: SLC11A2 (gene SLC11A2, hepatocytes): −0.59
RNA-seq results: SLC19A1 (gene SLC19A1, hepatocytes): −0.45
RNA-seq results: SLC19A2 (gene SLC19A2, hepatocytes): −0.03
RNA-seq results: SLC19A3 (gene SLC19A3, hepatocytes): −0.68
RNA-seq results: SLC22A1 (gene SLC22A1, hepatocytes): −0.13
RNA-seq results: SLC22A5 (gene SLC22A5, hepatocytes): 0.06
RNA-seq results: SLC25A1 (gene SLC25A1, hepatocytes): −0.09
RNA-seq results: SLC25A10 (gene SLC25A10, hepatocytes): −0.40
RNA-seq results: SLC25A12 (gene SLC25A12, hepatocytes): −0.41
RNA-seq results: SLC25A13 (gene SLC25A13, hepatocytes): −0.29
RNA-seq results: SLC25A15 (gene SLC25A15, hepatocytes): −0.47
RNA-seq results: SLC25A19 (gene SLC25A19, hepatocytes): 0.26
RNA-seq results: SLC25A20 (gene SLC25A20, hepatocytes): −0.32
RNA-seq results: SLC25A29 (gene SLC25A29, hepatocytes): −0.11
RNA-seq results: SLC25A32 (gene SLC25A32, hepatocytes): −0.13

Cc1ccc2c(=O)c3cccc(CC(=O)O)c3oc2c1C [DMXAA]
significant changes in gene expression: not observed to cause any significant changes in gene expression
significant modulation of expression of any of the genes analyzed (RNA-seq, hepatocytes): not observed to significantly modulate expression
effect on disease gene expression (RNA-seq, hepatocytes): no effect on any disease gene

CCCn1c(=O)c2[nH]c(C34CC5CC(CC3C5)C4)nc2n(CCC)c1=O [Rolofylline (KW-3902), Rolofylline]
significant changes in gene expression: not observed to cause any significant changes in gene expression
significant modulation of expression of any of the genes analyzed (RNA-seq, hepatocytes): not observed to significantly modulate expression

Fc1ccc(C(OCCN2CCN(CCCc3ccccc3)CC2)c2ccc(F)cc2)cc1 [Vanoxerine (dihydrochloride), Vanoxerine]
significant modulation of expression of disease genes (RNA-seq, hepatocytes): significantly (q≤0.05) modulate expression of HMOX1
B2M expression, RNA-seq result (gene B2M, hepatocytes): −0.07
B9D2 expression, RNA-seq result (gene B9D2, hepatocytes): 0.29
BAAT expression, RNA-seq result (gene BAAT, hepatocytes): 0.01
BBOX1 expression, RNA-seq result (gene BBOX1, hepatocytes): 0.01
BBS10 expression, RNA-seq result (gene BBS10, hepatocytes): −0.41
BCHE expression, RNA-seq result (gene BCHE, hepatocytes): −0.5
BCKDHB expression, RNA-seq result (gene BCKDHB, hepatocytes): −0.06
BCKDK expression, RNA-seq result (gene BCKDK, hepatocytes): 0.02
BCO1 expression, RNA-seq result (gene BCO1, hepatocytes): 0.08
BCR expression, RNA-seq result (gene BCR, hepatocytes): 0.04
BLNK expression, RNA-seq result (gene BLNK, hepatocytes): 0.18
BLOC1S3 expression, RNA-seq result (gene BLOC1S3, hepatocytes): 0.46
BMPR1A expression, RNA-seq result (gene BMPR1A, hepatocytes): 0
BRAF expression, RNA-seq result (gene BRAF, hepatocytes): 0.2
BSCL2 expression, RNA-seq result (gene BSCL2, hepatocytes): −0.45
BTD expression, RNA-seq result (gene BTD, hepatocytes): −0.16
C4A expression, RNA-seq result (gene C4A, hepatocytes): 0.05
C9 expression, RNA-seq result (gene C9, hepatocytes): −0.2
C10orf10 expression, RNA-seq result (gene C10orf10, hepatocytes): 0.02
C10orf11 expression, RNA-seq result (gene C10orf11, hepatocytes): 0.18
C15orf41 expression, RNA-seq result (gene C15orf41, hepatocytes): 0.13
CA2 expression, RNA-seq result (gene CA2, hepatocytes): 0.53
CA5A expression, RNA-seq result (gene CA5A, hepatocytes): 0.24
CA12 expression, RNA-seq result (gene CA12, hepatocytes): 0.77
CAV1 expression, RNA-seq result (gene CAV1, hepatocytes): −0.47
CCND1 expression, RNA-seq result (gene CCND1, hepatocytes): −0.33
CD46 expression, RNA-seq result (gene CD46, hepatocytes): −0.14
CD81 expression, RNA-seq result (gene CD81, hepatocytes): 0.3
CD320 expression, RNA-seq result (gene CD320, hepatocytes): 0.17
CDAN1 expression, RNA-seq result (gene CDAN1, hepatocytes): 0.25
CDH1 expression, RNA-seq result (gene CDH1, hepatocytes): −0.29
CEP19 expression, RNA-seq result (gene CEP19, hepatocytes): −0.07
CEP83 expression, RNA-seq result (gene CEP83, hepatocytes): −0.12
CEP164 expression, RNA-seq result (gene CEP164, hepatocytes): 0.12
CEP290 expression, RNA-seq result (gene CEP290, hepatocytes): −0.14
CFB expression, RNA-seq result (gene CFB, hepatocytes): 0.02
CFHR2 expression, RNA-seq result (gene CFHR2, hepatocytes): −0.46
CHRM3 expression, RNA-seq result (gene CHRM3, hepatocytes): −0.06
CIDEC expression, RNA-seq result (gene CIDEC, hepatocytes): 0.1
CLDN1 expression, RNA-seq result (gene CLDN1, hepatocytes): −0.37
COG1 expression, RNA-seq result (gene COG1, hepatocytes): 0.06

Fc1ccc(C(OCCN2CCN(CCCc3ccccc3)CC2)c2ccc(F)cc2)cc1 [Vanoxerine]
Number (#) of genes having significantly changed expression (RNA-seq, Phase III failure compounds, hepatocytes, significance: FPKM≥0.5, log 2(fold-change)≥1, q-value≥0.05 (so in the source)): 17
